# Source: patent US9969695B2, “N-substituted imidazole carboxylic ester chiral compound containing an ether side chain, its preparation and application” (WEST CHINA HOSPITAL, SICHUAN UNIVERSITY, priority 2013, dated 2018)
# Like-named read-outs stand apart in the source and are kept apart here.
# Key:
# [1] = system: Male SD rats; assay: ED50 by the sequential method, extinction of rat body-righting reflex; type: in vivo; conditions: Rattus norvegicus, etomidate as Etomidate-Lipuro, extinction of body-righting reflex ≥30 s, read-out: 50% effective dose (ED50)
# Experimental: (§1) Male SD rats (250˜300 g) were used as an experimental animal, and 50% effective dose (ED50) was determined by the sequential method. Three compounds were dissolved in a solvent of DMSO, and etomidate was used as the commercially-available formulation (B BRAUN, Etomidate-Lipuro®, 20 mg/10 mL). Based on the initial dose of 1 mg/kg, other dosages were adjusted as the ratio of 0.8, and the ED50 values of the three compounds and etomidate were determined. Extinction time ≥30 s for the rat body-righting reflex was the positive marker while no disappearance of the righting reflex was considered invalid. Based on the experimental results, four cross-points were formed, and the ED50 values were calculated. […] Then, the respective 2ED50 values of the three compounds and etomidate were taken in an equivalent dose, which were administered via the rat tail vein. The preliminary effects were evaluated in the four rat groups, which were given the three compounds of Formulas (I), (IV), (V) and etomidate, respectively, with 10 rats in each group. […] The last time of the Formula (I) compound and etomidate was 5-6 min, but the last time of the Formulas (IV) and (V) compounds was 10-20 min. […] DMSO had no pharmacological effects, and no adverse effects were observed. The onset time, the last time, and the adverse effects (types, incidence rates) induced by the three compounds and etomidate are shown in the following table:
# (§2) Male SD rats (250˜300 g) were used as an experimental animal, and 50% effective dose (ED50) was determined by the sequential method. Hydrochlorides of the three compounds were dissolved in the solvent of normal saline, and etomidate was used as the commercially-available formulation (B BRAUN, Etomidate-Lipuro®, 20 mg/10 mL). The initial dose was 1 mg/kg, and the ratio of dosage variation was 0.8, which was applied in the determination of ED50 values of Formula (I) hydrochloride, Formula (I) hydrobromide, Formula (I) trifluoroacetate, and etomidate. Extinction time (≥30 s) of the rat body-righting reflex was the positive marker while no disappearance of the reflex was considered invalid. Based on the experimental results, four cross-points were formed, and then ED50 values were calculated. […] Then, the respective 2ED50 values of the three compounds and etomidate were taken in an equivalent dose, which were administered via the rat tail vein. The preliminary effects were evaluated in the four rat groups, which were given the three compounds of Formulas (I) hydrochloride, Formula (I) hydrobromide, Formula (I) trifluoroacetate, and etomidate, respectively, with 10 rats in each group. […] Palinesthesia time was in arrange of 5-10 min. During the test period, no significant difference was found in the types and the incidence rates of adverse effects in each group. DMSO had no pharmacological effects, and no adverse effect was found. The onset time, the last time, and the types and the incidence rates of adverse effects induced by the three salt compounds and etomidate are shown in the following table: […]
# [2] = system: Male SD rats; assay: Onset time, last time, palinesthesia time and adverse effects at 2ED50 via the rat tail vein; type: in vivo; conditions: for Incidence of adverse effect: Muscle tremor / Onset time: 10 rats per group; for Last time: disappearance to recovery of body-righting reflex
# Experimental: as §1, §2
# [3] = system: self-synthesis of adrenocortical hormone; assay: Increase degree of cortical hormone (cortisol, corticosterone) in blood serum after ACTH stimulation, ELISA; type: in vivo; conditions: Beagle dogs; for Increase degree of corticosterone / Increase degree of cortisol: 2ED50, dexamethasone baseline, 1 h after ACTH
# Experimental: Male Beagle dogs (10±2 kg) were selected as an experimental animal. After administration, the contents of corticosterone and cortisol in the blood serum of the Beagle dogs were determined by the ELISA kit and the enzyme-labelled instrument. The 20 Beagle dogs were divided into five groups, with four dogs in each group. After respective administration of dexamethasone (0.01 mg/kg), the level of adrenal cortex in the dog body was lowered to the baseline, and those levels of corticosterone and cortisol at this time were used as the base value (baseline). […] After 10 min, ACTH (adrenocortical hormone) was given to stimulate and cause an increased level of cortex in the dog body. One hour after administration of ACTH, both corticosterone and cortisol levels in the blood serum of the Beagle dogs were determined, and the ratio of the peak value to the base value of the cortex levels was calculated. This ratio indicated the increase degree of the cortical hormone. A greater degree indicated a less inhibitory effect of the medicine on the cortical hormone. After administration, compounds of Formulas (I), (IV) and (V), DMSO, and the increase degree of the cortical hormone followed by stimulation of ACTH are shown in the following table:
# Male Beagle dogs (10±2 kg) were selected as an experimental animal. After administration, the contents of corticosterone and cortisol in the blood serum of the Beagle dogs were determined by the ELISA kit and the enzyme-labelled instrument. The 20 Beagle dogs were divided into five groups, with four dogs in each group. After respective administration of dexamethasone (0.01 mg/kg), the level of adrenal cortex in the dog body was lowered to the baseline, and the levels of corticosterone and cortisol at this time were used as the baseline. Then, the equivalent doses (2ED50) of the compounds of Formula (I) hydrochloride (3.62 mg/kg), hydrobromide (3.86 mg/kg), trifluoroacetate (4.66 mg/kg), the positive control medicine Etomidate-Lipuro® (0.9 mg/kg), and the equal-volume of solvent DMSO were respectively administrated into the dogs of the five groups. After 10 min, ACTH was given to stimulate and cause the cortex levels increase in the dog body. One hour after administration of ACTH, both the cortical hormone levels were determined, and the ratio of the peak value to the baseline of cortex levels was calculated. This ratio indicated the increase degree of the cortical hormone. A greater degree of increase indicated a less inhibitory effect of the medicine on the cortical hormone. After administrations, the three salts of the Formula (I) compound, DMSO, the increase degree of the cortical hormone followed by stimulation of ACTH are shown in the following table: […]
# [4] = after one intravenous bolus of etomidate 3 mg/kg, cited from earlier work
# [5] = system: 11β-hydroxylase; conditions: 11β-hydroxylase versus GABAA; cited from earlier work
# [6] = Example 9, 2ED50 via tail vein, listed as etomidate
# [7] = Example 10, ratio of peak value to base value
# [8] = Example 11, ratio of peak value to baseline
smiles,measurement,setting,value
"CCOC(=O)c1cncn1[C@H](C)c1ccccc1 [Etomidate, reference compound]",ED50,"[1]; Example 8, compounds in DMSO",1.14 mg/kg
same,ED50,"[1]; Example 9, salts in normal saline",1.06 mg/kg
same,sedative-hypnotic and general anesthetic effects (conclusion in words),[2]; Example 8,good sedative-hypnotic and general anesthetic effects
same,Incidence of adverse effect: Muscle tremor,"[2]; Example 8, 2ED50 via tail vein",70%
same,Onset time,"[2]; Example 8, 2ED50 via tail vein",Immediate
same,Onset time,"[2]; Example 8, 2ED50 via tail vein, listed as etomidate",immediate action
same,Last time,"[2]; Example 8, 2ED50 via tail vein",6.1 ± 1.3 min
same,Palinesthesia tune,"[2]; Example 8, 2ED50 via tail vein, recovery to full recovery of body-righting reflex",4.5 ± 1.2 min
same,sedative-hypnotic and general anesthetic effects (conclusion in words),[2]; Example 9,good sedative-hypnotic and general anesthetic effects
same,Incidence of adverse effect: Muscle tremor,"[2]; Example 9, 2ED50 via tail vein",60%
same,Onset time,"[2]; Example 9, 2ED50 via tail vein",Immediate
same,Onset time,[2]; [6],immediate action
same,Last time,"[2]; Example 9, 2ED50 via tail vein",5.9 ± 1.5 min
same,Last time,[2]; [6],4 to 8 min
same,Palinesthesia time,"[2]; Example 9, 2ED50 via tail vein, recovery to full recovery of body-righting reflex",5.1 ± 1.3 min
same,Increase degree of corticosterone,[3]; [7],2.53 ± 0.65
same,Increase degree of cortisol,[3]; [7],2.12 ± 0.56
same,inhibition on cortical hormone (conclusion in words),"[3]; Example 10, after stimulation by ACTH",significantly inhibit the self-synthesis of adrenocortical hormone
same,cortical hormone increase after stimulation by ACTH (conclusion in words),[3]; Example 11,significantly suppress the self-synthesis of adrenocortical hormone
same,Increase degree of corticosterone,[3]; [8],2.80 ± 0.76
same,Increase degree of cortisol,[3]; [8],2.46 ± 0.87
same,time for the plasma medicine concentration maintaining,[4],8 min
same,time of plasma medicine concentration maintaining above 8 ng/mL,[4],up to 8 h
same,minimal effective concentration for inhibition of cortical hormone synthesis,[4]; plasma,8 ng/mL
same,minimal effective concentration of anesthetic effect,[4]; plasma,110 ng/mL
same,ability of binding to 11β-hydroxylase relative to binding to GABAA acceptor,[5],100 times
